Source: patent publication US10202388B2, “Fused-ring compounds, pharmaceutical composition and uses thereof” (SHANGHAI DE NOVO PHARMATECH CO., LTD., priority 2015, dated 2019)

Tests used:
colon cancer MC38 cells = assay: Subcutaneous MC38 mouse colon cancer syngeneic model in C57BL/6 mice; format: in vivo; conditions: single agent, s.c. MC38 tumors in female C57BL/6 mice, FIG. 1
Method: Female mice (C57BL/6, 6-8 week old) were purchased from Shanghai Laboratory Animal Center, Chinese Academy of Sciences, Shanghai, China. Mice were housed under pathogen-free conditions with autoclaved rodent chow and water available ad libitum. Each mouse was inoculated s.c. with colon cancer MC38 cells in 0.1 mL PBS over the right lower flank. When the tumor volume reached 40 mm^3, mice were randomized based on initial tumor volume measurements and treated with either vehicle or compound 23A-3. Tumor volumes were measured with electronic digital caliper and calculated using the formula length (mm)×width (mm)^2/2 and expressed in mm^3. Student's t-test was used to evaluate the statistical significance of observed differences.

recombinant TDO2 = recombinant TDO2 (Homo sapiens (Human), UniProt P48775); assay: TDO2 enzymatic assay (UV absorption at 321 nm); format: biochemical; conditions: 50 nM TDO2, 200 μM tryptophan, 75 min
Method: The TDO2 enzymatic assay was performed by UV absorption using a recombinant TDO2 and L-Tryptophan substrate. The UV absorption signal at 321 nm is correlated with the amount of N-formylkynurenine reaction product of TDO2. The compounds were diluted in 10% DMSO and 5 μL of the dilution was added to a 100 μL reaction so that the final concentration of DMSO is 0.5% in all of reactions. All of the reactions were conducted at room temperature. The 100 μL reaction mixture in TDO2 Assay Buffer contains 50 nM TDO2, the indicated amount of the inhibitor, 200 μM tryptophan, and the coupled reaction components. The reaction mixture incubated for 75 min prior to reading the UV absorption signal. For the negative control (blank), 5 μl of the assay buffer was added instead of the TDO2.
(§1) Absorption signals were measured using a Tecan Infinite M1000 plate reader. Binding experiments were performed in duplicate at each concentration. The percent activity in the presence of each compound was calculated according to the following equation: % activity=[(A−Ab)/(At−Ab)]×100, where A=the absorption signal in the presence of the compound, Ab=the absorption signal of blank, At=the absorption signal in the absence of the compound. […] The IC50 was calculated using non-linear regression in Graph Pad Prism® 4.

Human recombinant IDO1 = Human recombinant IDO1 (Homo sapiens (Human), UniProt P14902); assay: IDO1 enzymatic assay (UV absorption at 321 nm); format: biochemical; conditions: human recombinant IDO1, 80 min incubation, room temperature; read-out: hIDO1 IC50
Method: The detailed experimental method is as follow:
The compounds described in this disclosure were dissolved in 10% DMSO to predefined concentration. All of the reactions were conducted at room temperature in this disclosure. Human recombinant IDO1 (BPS Bioscience) was added so that its concentration was 200 nm in the reaction buffer solution (200 μL). […] 10 μL test compound solution was added into the above reaction solution (200 μL), so that the final concentration of DMSO in all reaction wells was 0.5%. % concentration was volume %. After 80 min incubation of the reaction solution, the UV absorbance was measured using TECAN Infinite M1000 plate reader. For the negative control (blank), 10 μl of the assay buffer was added instead of the IDO1
All reagents (excluding human recombinant IDO1) were purchased from Sigma Aldrich, MO, USA.
as §1, with “The” for “Absorption signals were measured using a Tecan Infinite M1000 plate reader. Binding experiments were performed in duplicate at each concentration. The”

HeLa cell IDO1 = HeLa cell IDO1 (Homo sapiens (Human), UniProt P14902); assay: HeLa cell based IDO1 inhibition assay (kynurenine readout, IFN-γ induced); conditions: HeLa cells
Method: HeLa cell line was purchased from ATCC, cultured in MEM/EBSS medium supplemented with 10% FBS, penn-step (100,000 U/L), non-essential amino acid (0.1 Mm), sodium pyruvate (1.0 Mm). Cells were cultured at 37° C., 95% humidity and 5% CO2. […] The detailed experimental method is as follow:
25,000 HeLa cells were placed on 96-well plates. Each well contained 100 μl culture medium, subsequently IFN-γ and test compounds at specific concentrations (concentration range between 10 μM and 1 Nm, so that the final volume of culture medium was 200 μL) were added and IFN-γ was used to induce IDO1 expression. After incubation, 140 μL supernatant was transferred to 96-well plates. After adding 6.1 N TCA (10 μL), the plates were continuously incubated at 50° C. for 30 min, to hydrolyze N-formylkynurenine produced by IDO to kynurenine. The reaction solution was then centrifuged at 2500 rpm for 10 min to remove precipitate. 100 μL/well supernatant was then transferred to another 96-well plate. 100 μL of 2% (w/v) 4-N,N-dimethyl aminobenzaldehyde acetic acid solution was added and incubated at room temperature for 10 min. The yellow color derived from kynurenine was recorded by measuring absorbance at 480 nm using a microplate reader (TECAN Infinite M1000 Pro).

Sequence of Human recombinant IDO1 (P14902 whole entry): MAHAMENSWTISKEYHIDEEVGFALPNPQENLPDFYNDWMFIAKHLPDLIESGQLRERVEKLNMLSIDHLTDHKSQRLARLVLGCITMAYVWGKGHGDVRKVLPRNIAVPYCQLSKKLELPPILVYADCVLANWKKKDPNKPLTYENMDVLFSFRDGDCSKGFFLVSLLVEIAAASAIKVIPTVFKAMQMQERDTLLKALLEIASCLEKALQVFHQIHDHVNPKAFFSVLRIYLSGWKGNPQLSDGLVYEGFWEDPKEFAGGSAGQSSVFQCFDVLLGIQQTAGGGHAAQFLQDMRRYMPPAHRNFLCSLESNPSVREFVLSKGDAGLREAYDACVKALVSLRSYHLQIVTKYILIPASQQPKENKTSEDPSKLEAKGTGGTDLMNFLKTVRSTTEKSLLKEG
Sequence of HeLa cell IDO1 (P14902 whole entry): as above
Sequence of recombinant TDO2 (P48775 whole entry, species assumed): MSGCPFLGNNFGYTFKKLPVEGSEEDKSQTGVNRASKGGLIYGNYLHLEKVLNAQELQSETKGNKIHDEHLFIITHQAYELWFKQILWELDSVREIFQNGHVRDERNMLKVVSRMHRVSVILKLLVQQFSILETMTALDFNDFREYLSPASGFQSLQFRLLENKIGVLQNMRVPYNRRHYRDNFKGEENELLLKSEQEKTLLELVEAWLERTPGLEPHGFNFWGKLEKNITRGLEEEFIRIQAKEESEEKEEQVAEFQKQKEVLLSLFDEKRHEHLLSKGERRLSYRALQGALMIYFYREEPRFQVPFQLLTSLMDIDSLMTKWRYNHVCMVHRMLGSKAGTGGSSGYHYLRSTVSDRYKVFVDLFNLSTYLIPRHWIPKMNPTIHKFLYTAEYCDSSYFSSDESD

IC50 (recombinant TDO2): < 0.5 µM | IC50 (Human recombinant IDO1): < 0.1 µM | IC50 (HeLa cell IDO1): < 0.1 µM
Structure (SMILES): OC1C2CC3CC1CC([C@@H](O)CC1c4c(F)cccc4-c4cncn41)(C3)C2 (stereo partly shown) [Compound 23A-3]
tumor growth inhibition (mean tumor volume versus dosing days) (colon cancer MC38 cells): significant tumor growth inhibition effect
